These results are taken from US8877741B2, “Pyrrolidine derivatives, pharmaceutical compositions and uses thereof” (Boehringer Ingelheim International GmbH, priority 2013, dated 2014).

The target in this assay is human ACC2 (Homo sapiens (Human), UniProt O00763). In words: ACC2 assay, spectrophotometric 384 well assay (NADH-linked kinetic method). It is filed as biochemical. Conditions: human ACC2 construct lacking the 128 N-terminal amino acids; coupled lactate dehydrogenase/pyruvate kinase reaction, 340 nm, 25° C. On the procedure: Spectrophotometric 384 Well Assay
Sequence of human ACC2 (O00763 129-2458): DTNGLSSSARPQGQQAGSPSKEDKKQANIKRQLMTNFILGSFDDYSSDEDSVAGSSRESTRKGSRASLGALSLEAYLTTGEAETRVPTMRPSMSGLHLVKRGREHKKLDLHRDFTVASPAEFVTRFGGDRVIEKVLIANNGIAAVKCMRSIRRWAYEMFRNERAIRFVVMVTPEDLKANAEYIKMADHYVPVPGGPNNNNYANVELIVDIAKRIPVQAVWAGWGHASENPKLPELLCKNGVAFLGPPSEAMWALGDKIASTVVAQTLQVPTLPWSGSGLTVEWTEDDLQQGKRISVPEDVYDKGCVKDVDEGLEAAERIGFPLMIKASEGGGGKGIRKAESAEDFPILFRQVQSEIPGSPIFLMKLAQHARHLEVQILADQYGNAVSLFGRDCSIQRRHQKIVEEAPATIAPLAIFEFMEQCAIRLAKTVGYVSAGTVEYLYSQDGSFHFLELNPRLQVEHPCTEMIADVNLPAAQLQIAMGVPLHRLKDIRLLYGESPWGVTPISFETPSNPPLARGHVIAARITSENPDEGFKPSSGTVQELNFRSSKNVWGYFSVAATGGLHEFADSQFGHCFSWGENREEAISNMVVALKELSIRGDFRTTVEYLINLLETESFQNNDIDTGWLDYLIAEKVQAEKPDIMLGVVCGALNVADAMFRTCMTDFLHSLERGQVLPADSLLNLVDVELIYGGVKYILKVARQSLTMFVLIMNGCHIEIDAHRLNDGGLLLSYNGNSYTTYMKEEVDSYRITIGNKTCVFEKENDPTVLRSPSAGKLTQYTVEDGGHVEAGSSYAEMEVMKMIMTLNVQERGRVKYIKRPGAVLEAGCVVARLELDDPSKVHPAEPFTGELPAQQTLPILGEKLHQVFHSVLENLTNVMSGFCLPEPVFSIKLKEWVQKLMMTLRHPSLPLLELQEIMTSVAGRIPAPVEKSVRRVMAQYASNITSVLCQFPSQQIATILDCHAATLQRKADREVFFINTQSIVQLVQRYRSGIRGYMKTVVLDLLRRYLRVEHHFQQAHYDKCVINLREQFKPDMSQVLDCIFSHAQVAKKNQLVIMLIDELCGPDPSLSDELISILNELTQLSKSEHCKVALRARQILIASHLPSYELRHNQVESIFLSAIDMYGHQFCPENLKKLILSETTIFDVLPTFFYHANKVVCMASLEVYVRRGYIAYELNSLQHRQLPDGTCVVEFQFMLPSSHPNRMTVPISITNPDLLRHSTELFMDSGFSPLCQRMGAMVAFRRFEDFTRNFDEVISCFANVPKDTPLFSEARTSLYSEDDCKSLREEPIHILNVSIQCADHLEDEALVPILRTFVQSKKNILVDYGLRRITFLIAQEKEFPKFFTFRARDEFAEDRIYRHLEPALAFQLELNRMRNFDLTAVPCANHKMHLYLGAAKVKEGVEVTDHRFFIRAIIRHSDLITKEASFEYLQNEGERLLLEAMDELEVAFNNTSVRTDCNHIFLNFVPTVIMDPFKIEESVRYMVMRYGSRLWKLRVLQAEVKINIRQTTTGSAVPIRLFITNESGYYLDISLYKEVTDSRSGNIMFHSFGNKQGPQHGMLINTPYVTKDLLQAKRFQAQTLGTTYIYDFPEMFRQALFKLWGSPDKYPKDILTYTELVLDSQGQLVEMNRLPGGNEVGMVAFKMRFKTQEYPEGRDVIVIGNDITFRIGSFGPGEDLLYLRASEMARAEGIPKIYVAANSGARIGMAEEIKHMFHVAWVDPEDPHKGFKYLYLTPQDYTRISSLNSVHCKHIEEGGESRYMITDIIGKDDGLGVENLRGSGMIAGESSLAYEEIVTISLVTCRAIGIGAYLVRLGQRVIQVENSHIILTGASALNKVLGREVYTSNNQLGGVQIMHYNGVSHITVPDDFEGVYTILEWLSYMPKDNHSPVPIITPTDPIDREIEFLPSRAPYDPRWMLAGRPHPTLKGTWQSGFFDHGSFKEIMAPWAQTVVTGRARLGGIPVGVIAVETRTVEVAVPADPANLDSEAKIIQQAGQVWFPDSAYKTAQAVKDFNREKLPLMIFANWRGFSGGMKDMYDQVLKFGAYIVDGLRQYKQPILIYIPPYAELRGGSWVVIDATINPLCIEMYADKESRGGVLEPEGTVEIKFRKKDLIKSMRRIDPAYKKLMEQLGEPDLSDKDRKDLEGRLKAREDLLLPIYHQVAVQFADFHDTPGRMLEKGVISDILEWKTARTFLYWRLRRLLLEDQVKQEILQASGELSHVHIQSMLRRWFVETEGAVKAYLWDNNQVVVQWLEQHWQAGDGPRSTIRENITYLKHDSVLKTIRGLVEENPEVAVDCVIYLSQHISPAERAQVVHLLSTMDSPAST
Malonyl CoA formation by acetyl CoA carboxylases is stoichometrically linked to the consumption of ATP. ACC2 activity is measured in a NADH-linked kinetic method measuring ADP generated during the ACC reaction using a coupled lactate dehydrogenase/pyruvate kinase reaction.
For biological testing, a human ACC2 construct which lacks the 128 amino acids at the N-terminus for increased solubility (nt 385-6966 in Genbank entry AJ575592) is cloned. The protein is then expressed in insect cells using a baculoviral expression system. Protein purification is performed by anion exchange.
All compounds are dissolved in dimethyl sulfoxide (DMSO) to a concentration of 10 mM.
The enzymatic reaction is then started by addition of a mixture of NADH, acetyl Coenzyme A (both 2000 μM f.c.) and ATP (500 uM f.c.). The decrease of the optical density (slope S) is then determined at 25° C. at a wavelength of 340 nm over 15 minutes in a spectrophotometric reader.
Each assay microtiter plate contains wells with vehicle instead of compound as controls for the non-inhibited enzyme (100% CTL; ‘HIGH’) and wells without acetyl-CoA as controls for non-specific NADH degradation (0% CTL; ‘LOW’).
The slope S is used for calculation of % CTL=(S(compound)−S(‘LOW’))/(S(‘HIGH’)−S(‘LOW’))*100.
For IC50 value determination, the sample slope in the presence of the test compound after subtraction of the low controls (S(compound)−S(‘LOW’)) are used.
An IC50 value is derived from the compound slopes at different dosages after subtraction of the low controls (S(compound)−S(‘LOW’)) by non-linear regression curve fitting (equation y=(A+((B−A)/(1+((C/x)^D))))).

In turn, `Cc1occc1C(=O)N[C@@H](C)c1ccc(OC2CCN(c3ccnc(OC(C)C)c3)C2)cc1` (stereo partly shown) [Example 2.12] displayed an IC50 of 921 nM.
The same measure for `CC(=O)N[C@@H](C)c1ccc(O[C@@H]2CCN(c3ccnc(N4CCCC4)c3C)C2)cc1` [Example 1.125]: 402 nM.
With `CC(=O)N[C@@H](C)c1ccc(O[C@@H]2CCN(c3cccc(N4CCC(C)(C)C4)n3)C2)cc1` [Example 10.48], the IC50 is 256 nM.
Under `C[C@H](NC=O)c1ccc(O[C@@H]2CCN(c3cccc(C(F)(F)F)n3)C2)cc1` [Example 12, N—((S)-1-(4-((R)-1-(6-(Trifluoromethyl)pyridin-2-yl)pyrrolidin-3-yloxy)phenyl)ethyl) formamide] stands 888 nM; under `CCC(=O)Nc1nc(C)c(C(=O)N[C@@H](C)c2ccc(O[C@@H]3CCN(c4ccnc(NCC(F)F)c4F)C3)cc2)s1` [Example 1.141], 421 nM; under `C[C@H](NC(=O)c1cncs1)c1ccc(OC2CCN(c3cccc(C(F)(F)F)n3)C2)cc1` (stereo partly shown) [Example 2.46], 60 nM.
The same measure for `CC(=O)N[C@@H](C)c1ccc(O[C@@H]2CCN(c3ccnc(OCC4CC4)c3F)C2)cc1` [Example 9.51]: 42 nM; for `CC(=O)N[C@@H](C)c1ccc(OC2CCN(c3cccc(C4CCC4)n3)C2)cc1` (stereo partly shown) [Example 1.86]: 89 nM.
The compound `C[C@H](NC(=O)c1cnco1)c1ccc(OC2CCN(c3cccc(C(F)(F)F)n3)C2)cc1` (stereo partly shown) [Example 2.122] displayed an IC50 of 85 nM.
The same measure for `C[C@H](NC(=O)c1cn[nH]c1)c1ccc(OC2CCN(c3ccc(OC[C@H]4CC4(F)F)cn3)C2)cc1` (stereo partly shown) [Example 2.93]: 40 nM.
`C=C(C)COc1cc(N2CC[C@@H](Oc3ccc([C@H](C)NC(C)=O)cc3)C2)ccn1` [Example 9.17] came in with an IC50 of 77 nM.
The same measure for `C[C@H](NC(=O)c1cnn(C)c1N)c1ccc(OC2CCN(c3ccnc(OCC(F)F)c3)C2)cc1` (stereo partly shown) [Example 2.112]: 298 nM.
The same measure for `CCN(CC)c1cccc(N2CC[C@@H](Oc3ccc([C@H](C)NC(C)=O)cc3)C2)n1` [Example 10.27]: 123 nM; for `CC(=O)N[C@@H](C)c1ccc(OC2CCN(c3ncc(OCC(F)(F)F)cc3F)C2)cc1` (stereo partly shown) [Example 1.33]: 504 nM; for `CCCOc1cc(C)c(N2CCC(Oc3ccc([C@H](C)NC(C)=O)cc3)C2)cn1` (stereo partly shown) [Example 1.51]: 401 nM.
Consider `CC(=O)N[C@@H](C)c1ccc(OC2CCN(c3ncc(OCCC4CC4)cc3F)C2)cc1` (stereo partly shown) [Example 1.34], for which the IC50 was determined as 434 nM.
Under `CCCOc1ccc(N2CC[C@@H](Oc3ccc([C@H](C)NC(=O)c4sc(NC(C)=O)nc4C)cc3)C2)nc1` [Example 1.50] stands 170 nM.
The same measure for `C[C@H](NC(=O)N1CCOCC1)c1ccc(OC2CCN(c3ccnc(OCC4CC4(F)F)c3F)C2)cc1` (stereo partly shown) [Example 5.5]: 310 nM; for `CCN(C)c1cc(N2CC[C@@H](Oc3ccc([C@H](C)NC(C)=O)cc3)C2)c(F)cn1` [Example 10.23]: 87 nM; for `CCC(=O)N[C@@H](C)c1ccc(OC2CCN(c3ccc(OCC4CC4(F)F)cn3)C2)cc1` (stereo partly shown) [Example 2.33]: 55 nM.
Under `CC(=O)N[C@@H](C)c1ccc(O[C@@H]2CCN(c3ccnc(OCc4ccccn4)c3)C2)cc1` [Example 9.33] stands 535 nM.
As to `CC(=O)N[C@@H](C)c1ccc(O[C@@H]2CCN(c3cccc(N4CCC(F)(F)CC4)n3)C2)cc1` [Example 10.34], inhibition was half-maximal at 464 nM (IC50).
Under `C[C@H](NC(=O)C(F)(F)F)c1ccc(OC2CCN(c3ccnc(OCC4CC4)c3)C2)cc1` (stereo partly shown) [Example 7.3] stands 54 nM; under `CC(=O)N[C@@H](C)c1ccc(O[C@@H]2CCN(c3ccnc(OCCO)c3F)C2)cc1` [Example 9.75], 881 nM.
`CCC(=O)N[C@@H](C)c1ccc(OC2CCN(c3ccnc(N4CCC(F)(F)C4)c3F)C2)cc1` (stereo partly shown) [Example 5.3] yielded an IC50 of 34 nM.
Under `CCCNc1nccc(N2CC[C@@H](Oc3ccc([C@H](C)NC(C)=O)cc3)C2)c1F` [Example 1.107] stands 52 nM.
The same measure for `CC(=O)N[C@@H](C)c1ccc(O[C@@H]2CCN(c3cccc(N(C)C4CCOCC4)n3)C2)cc1` [Example 10.39]: 360 nM; for `CCCOc1ccc(N2CC[C@@H](Oc3ccc([C@H](C)NC(C)=O)cc3)C2)c(OC)n1` [Example 1.130]: 233 nM.
Under `CCC(=O)Nc1nc(C)c(C(=O)N[C@@H](C)c2ccc(O[C@@H]3CCN(c4ccnc(OCC5CC5)c4Cl)C3)cc2)s1` [Example 9.73] stands 45 nM; under `CC(=O)N[C@@H](C)c1ccc(O[C@@H]2CCN(c3ccnc(O[C@@H]4CCOC4)c3)C2)cc1` [Example 9.10], 184 nM; under `CC(=O)N[C@@H](C)c1ccc(O[C@@H]2CCN(c3ccnc(OCC(C)C)c3F)C2)cc1` [Example 9.50], 110 nM.
Compound `CC(=O)N[C@@H](C)c1ccc(O[C@@H]2CCN(c3cccc(N4CC=CC4)n3)C2)cc1` [Example 10.44] had an IC50 of 665 nM.
Under `CC(=O)N[C@@H](C)c1ccc(O[C@@H]2CCN(c3ccnc(OC(C)C)c3F)C2)cc1` [Example 9.83] stands 80 nM; under `CC(=O)N[C@@H](C)c1ccc(O[C@@H]2CCN(c3cccc(N(C)C4CCCC4)n3)C2)cc1` [Example 10.29], 170 nM.
Consider `C[C@H](NC(=O)c1cncs1)c1ccc(OC2CCN(c3ccc(OCC4CC4(F)F)cn3)C2)cc1` (stereo partly shown) [Example 2.59], for which the IC50 is 55 nM.
Under `CC(=O)N[C@@H](C)c1ccc(O[C@@H]2CCN(c3cccc(C(F)(F)F)n3)C2)cc1` [Example 8.1, N—((S)-1-(4-((R)-1-(6-(Trifluoromethyl)pyridin-2-yl)pyrrolidin-3-yloxy)phenyl)ethyl)acetamide] stands 62 nM.
The same measure for `COCCN(C)c1cccc(N2CC[C@@H](Oc3ccc([C@H](C)NC(C)=O)cc3)C2)n1` [Example 10.28]: 142 nM; for `CC(=O)N[C@@H](C)c1ccc(OC2CCN(c3ncc(OCC4CC4(F)F)cc3F)C2)cc1` (stereo partly shown) [Example 1.23]: 115 nM.
Under `C[C@H](NC(=O)C(F)F)c1ccc(OC2CCN(c3ccc(OCC4CC4(F)F)cn3)C2)cc1` (stereo partly shown) [Example 2.60] stands 35 nM; under `CC(C)Oc1cc(N2CCC(Oc3ccc([C@H](C)NC(=O)N(C)C)cc3)C2)ccn1` (stereo partly shown) [Example 3.2], 65 nM; under `CC(=O)N[C@@H](C)c1ccc(O[C@@H]2CCN(c3ccnc(OCC(C)(F)F)c3Cl)C2)cc1` [Example 9.77], 59 nM.
With `CC(=O)N[C@@H](C)c1ccc(O[C@@H]2CCN(c3ccnc(NCC(C)(C)O)c3F)C2)cc1` [Example 10.53], the IC50 came out at 215 nM.
Under `COc1cc(OCC2CC2)cnc1N1CCC(Oc2ccc([C@H](C)NC(C)=O)cc2)C1` (stereo partly shown) [Example 1.80] stands 484 nM; under `CCC(=O)Nc1nc(C)c(C(=O)N[C@@H](C)c2ccc(O[C@@H]3CCN(c4ccnc(NCC5CC5)c4Cl)C3)cc2)s1` [Example 1.140], 65 nM; under `CC(=O)N[C@@H](C)c1ccc(OC2CCN(c3ccc(OCCC4CC4)cn3)C2)cc1` (stereo partly shown) [Example 1.31], 139 nM.
The same measure for `CCCOc1ccc(N2CCC(Oc3ccc([C@H](C)NC(C)=O)cc3)C2)c(C#N)n1` (stereo partly shown) [Example 1.13]: 345 nM.
The same measure for `CCN(C)C(=O)N[C@@H](C)c1ccc(OC2CCN(c3ccnc(OCC4CC4)c3)C2)cc1` (stereo partly shown) [Example 3.6]: 110 nM; for `CCN(C)c1nccc(N2CC[C@@H](Oc3ccc([C@H](C)NC(C)=O)cc3)C2)c1F` [Example 10.14]: 45 nM.
Compound `CC(=O)N[C@@H](C)c1ccc(O[C@@H]2CCN(c3ccnc(OC4CCCC4)c3Cl)C2)cc1` [Example 9.81] yielded an IC50 of 53 nM.
Under `CCCOc1cc(N2CC[C@@H](Oc3ccc([C@H](C)NC(=O)C4CC4)cc3)C2)ccn1` [Example 9.37] stands 385 nM.
Consider `CC(=O)N[C@@H](C)c1ccc(O[C@@H]2CCN(c3cc(NCC4CC4)ncc3F)C2)cc1` [Example 10.26], for which the half-inhibitory concentration (IC50) came out at 755 nM.
The same measure for `COc1c(N2CC[C@@H](Oc3ccc([C@H](C)NC(C)=O)cc3)C2)ccnc1N1CCCC1` [Example 1.136]: 476 nM; for `CC(=O)N[C@@H](C)c1ccc(O[C@@H]2CCN(c3ccnc(NCC(C)(C)O)c3Cl)C2)cc1` [Example 10.51]: 65 nM; for `C[C@H](NC(=O)c1ccon1)c1ccc(OC2CCN(c3cccc(C(F)(F)F)n3)C2)cc1` (stereo partly shown) [Example 2.51]: 128 nM.
Under `CC(=O)N[C@@H](C)c1ccc(O[C@@H]2CCN(c3ccnc(OCc4ccc(F)cc4)c3)C2)cc1` [Example 9.6] stands 90 nM.
Under `C[C@H](NC(=O)c1cnc(N)o1)c1ccc(OC2CCN(c3ccnc(OCC(F)F)c3)C2)cc1` (stereo partly shown) [Example 2.103] stands 523 nM; under `CSc1ccc(N2CCC(Oc3ccc([C@H](C)NC(C)=O)cc3)C2)nc1` (stereo partly shown) [Example 1.69], 387 nM; under `CCOc1nccc(N2CC[C@@H](Oc3ccc([C@H](C)NC(C)=O)cc3)C2)c1Cl` [Example 9.76], 114 nM.
